Converted amounts (≈) assume the structure as drawn. “And” between values parts separate entries of the source, which are not always exact repeats. Equal entries are not always repeated. Where two headings read alike, the source gives them in different places.
Key:
A. baumannii [1] = assay: MIC determination by broth microdilution in A. baumannii; type: cell-based, Acinetobacter baumannii (AB5075); details: modified M63 media, 35° C.; for MIC: Acinetobacter baumannii
Procedure: Pre-cultures (5 mL LB media) were grown for 12 h at 37° C. and 220 rpm in 50 mL conical tubes (VWR International, PA) covered with an air permeable membrane. The cells were then centrifuged at 4,000 rpm for 10 min, the resultant cell pellets washed twice in […] media and then diluted in […] media to OD600=0.01. Stock solutions (100 mM) of analog in DMSO were prepared weekly and stored at 4° C. Prior to initiating experiments in 96 well plates, the analog stock solution was serially diluted to make 10 mM or 1 mM working solutions in DMSO. […] The resultant cell suspension (200 μL) was transferred to a clear-bottom polystyrene 96 well plate (VWR), and incubated at 35° C. and 205 cpm for 13 h in an Epoch 2 microplate spectrophotometer (Biotek Instruments, Inc., Vermont). The growth curve in the presence of Ciprofloxacin was obtained in the same plate. […] MIC determinations were carried out using standard broth microdilution methods in 48 well plates and modified […] media. Cells were incubated at 35° C.

A. baumannii [2] = assay: Growth curves and IC50 determination in A. baumannii; type: cell-based, Acinetobacter baumannii (AB5075); details: AB5075, modified M63 media, 48 well-plates
Procedure: (§1) Pre-cultures (5 mL LB media) were grown for 12 h at 37° C. and 220 rpm in 50 mL conical tubes (VWR International, PA) covered with an air permeable membrane. The cells were then centrifuged at 4,000 rpm for 10 min, the resultant cell pellets washed twice in M63 media and then diluted in M63 media to OD600=0.01. Stock solutions (100 mM) of analog in DMSO were prepared weekly and stored at 4° C. Prior to initiating experiments in 96 well plates, the analog stock solution was serially diluted to make 10 mM or 1 mM working solutions in DMSO. A small volume of the appropriate working solution was transferred to a glass vial, diluted with DMSO to 30 μL, and then diluted to a final volume of 1.5 mL with pre-culture cell suspension with an OD600=0.01. The resultant cell suspension (200 μL) was transferred to a clear-bottom polystyrene 96 well plate (VWR), and incubated at 35° C. and 205 cpm for 13 h in an Epoch 2 microplate spectrophotometer (Biotek Instruments, Inc., Vermont). The growth curve in the presence of Ciprofloxacin was obtained in the same plate. […] MIC determinations were carried out using standard broth microdilution methods in 48 well plates and modified M63 media. Cells were incubated at 35° C.
This idea was tested with A. baumanni AB5075, a highly virulent isolate, which has been proposed as a model strain for the evaluation of pathogenesis and antimicrobial treatments.^66.

P. aeruginosa [3] = assay: Growth curves and IC50 determination in P. aeruginosa; type: cell-based, Pseudomonas aeruginosa (PAO1); details: M63 media, growth % from OD600 at 13 h, three independent experiments
Procedure: as §1

BfrB [4] = target: T1, BfrB (Pseudomonas aeruginosa, UniProt Q9HY79); assay: STD NMR fragment screening with Bfd competitive displacement; type: binding; details: STD NMR with Bfd as specific competitor
T1 sequence (Q9HY79 whole entry, the tested form may be a part): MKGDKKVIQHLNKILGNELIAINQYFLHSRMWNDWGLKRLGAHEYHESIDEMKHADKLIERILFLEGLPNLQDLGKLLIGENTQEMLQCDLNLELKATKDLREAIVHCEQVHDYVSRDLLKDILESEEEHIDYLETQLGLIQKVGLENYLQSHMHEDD
Excerpt: Fragment Library Screening Using Saturation Transfer Difference (STD) NMR Spectroscopy
Structural information obtained from the BfrB-Bfd complex was used to design a fragment library to screen for molecules that bind BfrB at the Bfd-binding site. […] In addition, fragments capable of π-π stacking were included with both electron rich and deficient aromatic rings. To screen the library in search of fragments that bind BfrB at the Bfd-binding site a competition assay was developed that utilizes saturation transfer difference (STD) NMR spectroscopy. This technique is ideally suited to screen fragments that bind to the large BfrB (˜440 kDa) because protein resonance assignments are not necessary and very low protein concentrations are required. In addition, the large rotational correlation time (τc) of BfrB enhances spin diffusion and therefore saturation transfer within the protein and to the ligand.^51 Two solutions were prepared for each fragment: a solution of the fragment alone, and a solution of the fragment and BfrB. Three spectra were obtained for each fragment. The ^1H spectrum of the fragment alone was used to determine fragment integrity and solubility, the ^1H spectrum of the fragment in the presence of BfrB was used to corroborate that fragment integrity and solubility is not affected by BfrB, and the STD spectrum of the solution containing the fragment and BfrB was used to assess fragment binding. This strategy uncovered 18 compounds that bind BfrB. The specificity criterion for fragment binders, however, is that these bind BfrB specifically at the Bfd-binding site. To eliminate non-specific binders, a displacement strategy was implemented that utilizes Bfd as a specific competitor. For this purpose, a STD spectrum was acquired from a solution containing fragment, BfrB and Bfd. […] These fragments were advanced to the next stage, which was focused on uncovering structural information of fragment binding.

[5] = system: wild type P. aeruginosa cells; assay: Growth response of wild type cells to analog (viable cell count); type: cell-based, Pseudomonas aeruginosa; details: M63 + 4 μM Fe; 15 h post-inoculation; viable cells vs untreated control
Procedure: (§2) To this end, wild type and ΔbfrB cells were cultured in M63 media supplemented with 4 μM Fe, in the presence of different concentrations of analog. […] Since BfrB is not essential, it is likely that the cell can compensate for the absence of the iron storage protein. […] The sudden onset of toxicity observed in the second phase, which is not observed with the wild type cells, is probably related to off-target effects that expose a fitness vulnerability caused by the absence of BfrB. Consequently, it is possible to conclude that the dose-dependent growth defect elicited by 11 or 16 on wild type P. aeruginosa cells is largely a consequence of the interaction between the small molecule inhibitors and BfrB in the bacterial cell. This issue was investigated in additional detail (see below) by probing the phenotypic and biochemical response of wild type cells treated with the small molecule inhibitors.

[6] = system: ΔbfrB P. aeruginosa cells; assay: Growth response of bfrB deletion mutant cells to analog; type: cell-based, Pseudomonas aeruginosa; details: M63 + 4 μM Fe; 15 h post-inoculation; viable cells vs untreated control
Procedure: as §2

apo-BfrB = apo-BfrB (Pseudomonas aeruginosa, UniProt Q9HY79); assay: Fluorescence polarization binding assay, apo-BfrB titrated into fluorescent ligand; details: fluorescence polarization and intensity near emission λmax
Chain of apo-BfrB (Q9HY79 whole entry): as the sequence (Q9HY79 whole entry, the tested form may be a part) above
Procedure: Prior to testing the effect that the 4-substituted isoindoline-1,3-dione derivatives might exert on P. aeruginosa cells, the strength of their interaction with BfrB was evaluated in vitro with a fluorescence polarization assay developed based on the intrinsic fluorescence of the isoindoline-1,3-dione moiety.

A. baumannii cells = assay: CAS assay for siderophore detection; type: cell-based, Acinetobacter baumannii; details: analog 64 μM; modified M63 media; 35° C.
Procedure: These experiments were carried out in 48 well-plates in a Synergy H1 microplate spectrophotometer as described above for obtaining A. baumannii growth curves. Cultures treated with analog KM-5-25 at 64 μM final concentration were used in these experiments. The cell-free supernatants (25 μL) collected after the 24-h growth curves had been completed was mixed with 175 μL of the CAS assay reagent (10 mM hexadecyltrimethyl ammonium bromide (HDTMA), 1 mM FeCl3·6H2O, 2 mM azurol S-CAS in 145 mM PIPES buffer, pH 5.9).^64 The absorbance at 630 nm was read in an Epoch2 microplate spectrophotometer after 2 h and used to calculate the percent siderophore (PSU) with the aid of equation 3,^65 where Ar is the absorbance of the reference solution (CAS solution and un-inoculated media) and As is the absorbance of the sample (CAS solution and cell-free supernatant). PSU values were normalized to CFU/mL.
The results are illustrated in FIGS. 8A and 8B with observations made when A. baumannii cells are cultured at 35° C. in modified M63 media treated with analogs KM-5-25 and KM-5-35.

P. aeruginosa PAO1 = assay: Effect of analogs on the potency of fluoroquinolone antibiotics, strain PAO1; type: cell-based, Pseudomonas aeruginosa; details: data not shown
Procedure: The combined treatment was carried out similarly, ensuring that the final concentration of DMSO was 2%.

P. aeruginosa [7] = details: literature value; cited from earlier work
BfrB [8] = target: T1, BfrB; details: holo-BfrB; previously reported; read-out: Kd, interaction between Bfd and BfrB (holo); cited from earlier work
BfrB [9] = target: T1, BfrB; assay: Bfd association with BfrB in solution; type: binding; details: apo-BfrB; read-out: Kd, interaction between Bfd and apo-BfrB

For “4-((3-(4-Chloro-2-hydroxyphenyl)propyl)amino)isoindoline-1,3-dione [KM-5-66]”, the “A. baumannii MIC” value (A. baumannii [1]) was 80 to 128 µM, the IC50 (A. baumannii [2]) was less than 32 µM and the IC50 (P. aeruginosa [3]) was 48 µM.

With `Cc1cc(NS(=O)(=O)c2ccc(N)cc2)no1` [4-amino-N—(S-methylisoxazol-3-yl)benzenesulfonamide] the “fragment binding to BfrB, STD signal displaced by Bfd” value (from here on “fragment binding to BfrB”) (BfrB [4]) was “bind at the Bfd-binding site”.

With `Brc1cccc(-c2nnn[nH]2)c1` [5-(3-bromophenyl)-1H-tetrazole] the “fragment binding to BfrB” value (BfrB [4]) was “bind at the Bfd-binding site”.

For `O=C1NC(=O)c2cc(O)ccc21` [5-hydroxyisoindoline-1,3-dione], the “fragment binding to BfrB” value (BfrB [4]) was “bind at the Bfd-binding site”.

With `CC(=O)c1ccc2c(c1)NC(=O)CO2` [6-acetyl-2H-benzo[b][1,4]oxazin-3(4H)-one] the “fragment binding to BfrB” value (BfrB [4]) was “bind at the Bfd-binding site”.

For `Nc1cccc2c1C(=O)NC2=O` [Analog 8, reference compound], the “P. aeruginosa IC50” value (P. aeruginosa [3]) was “Not active”.

In the case of `O=C1NC(=O)c2c(NCc3ccccc3O)cccc21` [Analog 11, 4-((2-Hydroxybenzyl)amino)isoindoline-1,3-dione], the “growth response of wild type cells” value [5] is reported as “monophasic dose-dependent growth defect”, the IC50 (P. aeruginosa [3]; Pseudomonas aeruginosa) is reported as 258 µM and the “growth response of ΔbfrB mutant cells” value [6] is reported as “biphasic growth response”.

For `O=C1NC(=O)c2c(NCc3cccc(O)c3)cccc21` [Analog 12, 4-((3-Hydroxybenzyl)amino)isoindoline-1,3-dione], the “P. aeruginosa IC50” value (P. aeruginosa [3]) was “Not active”.

With `O=C1NC(=O)c2c(NCCCc3ccc(O)cc3)cccc21` [Analog 13] the IC50 (P. aeruginosa [3]; Pseudomonas aeruginosa) was 201 µM.

In the case of `O=C1NC(=O)c2c(NCCCc3ccc(O)cc3O)cccc21` [Analog 14], the IC50 (P. aeruginosa [3]; Pseudomonas aeruginosa) is reported as 143 µM.

In the case of `COc1cc(O)ccc1CCCNc1cccc2c1C(=O)NC2=O` [Analog 15], the IC50 (P. aeruginosa [3]; Pseudomonas aeruginosa) is reported as 227 µM.

Molecule `O=C1NC(=O)c2c(NCCCc3cc(F)ccc3O)cccc21` [JAG-005-006, 4-((3-(5-Fluoro-2-hydroxyphenyl)propyl)amino)isoindoline-1,3-dione] has an MIC (A. baumannii [1]) of 128 µM (≈ 40.2 µg/mL) and an IC50 (P. aeruginosa [3]; Pseudomonas aeruginosa) of 48 µM.

`O=C1NC(=O)c2c(NCc3ccc(Br)cc3O)cccc21` [JAG-005-030, 4-((4-Bromo-2-hydroxybenzyl)amino)isoindoline-1,3-dione] showed an MIC (A. baumannii [1]) of 80 to 128 µM (≈ 27.8 to 44.4 µg/mL) and an IC50 (A. baumannii [2]; Acinetobacter baumannii) of 48 µM.

For `O=C1NC(=O)c2c(NCc3cc(Cl)ccc3O)cccc21` [KM-5-25, 4-((5-Chloro-2-hydroxybenzyl)amino)isoindoline-1,3-dione], the Kd (apo-BfrB) was 2.9 ± 1.9 µM, the MIC (A. baumannii [1]) was 128 µM (≈ 38.7 µg/mL) and the “siderophores produced relative to untreated control, normalized to CFU/mL” value (A. baumannii cells) was “approximately 2 fold”. For the same molecule, the IC50 (A. baumannii [2]; Acinetobacter baumannii) was 64 µM and the IC50 (P. aeruginosa [3]; Pseudomonas aeruginosa) was 64 µM.

In the case of `O=C1NC(=O)c2c(NCc3cc(Br)ccc3O)cccc21` [KM-5-35, 4-((5-Bromo-2-hydroxybenzyl)amino)isoindoline-1,3-dione], the Kd (apo-BfrB) is reported as 2 ± 1.4 µM, the MIC (A. baumannii [1]) is reported as 80 to 128 µM (≈ 27.8 to 44.4 µg/mL) and the “siderophores produced relative to untreated control, normalized to CFU/mL” value (A. baumannii cells) is reported as “approximately 2 fold”. The IC50 (A. baumannii [2]; Acinetobacter baumannii) was 64 µM and the IC50 (P. aeruginosa [3]; Pseudomonas aeruginosa) was 48 µM.

For `CC(=O)Nc1ccc(Br)cc1` [N-(4-bromophenyl)acetamide], the “fragment binding to BfrB” value (BfrB [4]) was “bind at the Bfd-binding site”.

For `CS(=O)(=O)Nc1ccc(C#N)cc1` [N-(4-cyanophenyl)methanesulfonamide], the “fragment binding to BfrB” value (BfrB [4]) was “bind at the Bfd-binding site”.

In the case of `CC(C)(O/N=C(\C(=O)N[C@@H]1C(=O)N2C(C(=O)[O-])=C(C[n+]3ccccc3)CS[C@H]12)c1csc(N)n1)C(=O)O` [ceftazidime, reference compound], the “enhancement of antibacterial activity in combination with the small molecule inhibitors of the BfrB-Bfd interaction” value (P. aeruginosa PAO1) is reported as “no enhancement”.

For `O=C(O)c1cn(C2CC2)c2cc(N3CCNCC3)c(F)cc2c1=O` [ciprofloxacin], the “reported MIC” value (P. aeruginosa [7]) is listed as 0.25 µg/mL.

In the case of `CCn1cc(C(=O)O)c(=O)c2cc(F)c(N3CCNCC3)cc21` [norfloxacin], the “reported MIC” value (P. aeruginosa [7]) is given as 0.9 µg/mL.

With `NC[C@H]1O[C@H](O[C@H]2[C@H](O)[C@@H](O[C@H]3O[C@H](CO)[C@@H](O)[C@H](N)[C@H]3O)[C@H](N)C[C@@H]2N)[C@H](N)C[C@@H]1O` [tobramycin, reference compound] the “enhancement of antibacterial activity in combination with the small molecule inhibitors of the BfrB-Bfd interaction” value (P. aeruginosa PAO1) was “no enhancement”.

For gentamycin [reference compound], the “enhancement of antibacterial activity in combination with the small molecule inhibitors of the BfrB-Bfd interaction” value (P. aeruginosa PAO1) was “no enhancement”.

B1: Bfd: bacterioferritin-associated ferredoxin, cognate partner of the iron storage protein BfrB (protein, UniProt Q9HY80 1-73, looked up)
Bacterioferritin-associated …: MYVCLCQGVTDNQIRDAIYEGCCSYREVREATGVGTQCGKCACLAKQVVRETLNDLQSAQPVPAFGTTAFVAA
In the case of B1, the Kd (BfrB [8]) is listed as 3.4 µM and 3 µM and ~3 µM and the Kd (BfrB [9]) is listed as 3.1 µM.

Source: patent US12251370B2, “Small molecule inhibitors of the BfrB:Bfd interaction” (BOARD OF SUPERVISORS OF LOUISIANA STATE UNIVERSITY AND …, priority 2018, dated 2025)
